Experimental data taken from patent US20230382915A1, “GCN2 AND PERK KINASE INHIBITORS AND METHODS OF USE THEREOF” (Deciphera Pharmaceuticals, LLC, priority 2021, published 2023).

How the values were obtained:
CCRF-CEM leukemia cells = assay: CCRF-CEM ASNase cell proliferation assay; assay type: cell-based; details: Homo sapiens, 1 mU/mL ASNase, 72 h
Method: CCRF-CEM leukemia cells (catalog #CCL-116) were obtained from the American Type Culture Collect (ATTC, Manassas, VA). Cells were grown in RPMI-1640 medium supplemented with 10% heat-inactivated fetal bovine serum (Invitrogen, Carlsbad, CA) and 1% Penicillin/Streptomycin/L-Glutamine at 37° C., 5% CO2, and 95% humidity. Cells were expanded until reaching one million cells per mL at which time they are subcultured or harvested for assay use. Ten thousand cells per well in 200 μL RPMI-1640 supplemented with 10% heat-inactivated fetal bovine serum and 1% Penicillin/Streptomycin were dispensed into a 96-well black clear bottom plate. A serial dilution of test compound and 1 mU/mL ASNase was added in triplicate and plates were incubated for 72 h at 37° C., 5% CO2, and 95% humidity. At the end of the incubation, 40 μL of a […] solution of resazurin (Sigma, St. Louis, MO) in PBS was added to each well of the plate and plates were incubated for an additional 6 h at 37° C., 5% CO2, and 95% humidity. Plates were read on a Synergy2 or equivalent reader (Biotek, Winooski VT) using an excitation of 540 nm and an emission of 600 nm. Data was analyzed using GraphPad Prism software (GraphPad, San Diego, CA) to calculate IC50 values.

[1] = test system: ATF4 target genes in H929 multiple myeloma cells; assay: H929 UPR/ISR target genes quantitative RT-PCR; assay type: cell-based
Method: H929 multiple myeloma cells (catalog #CRL-9068) multiple myeloma cells were obtained from the American Type Culture Collection (ATTC, Manassas, VA). Cells were grown in RPMI-1640 medium supplemented with 20% heat-inactivated fetal bovine serum (catalog #A3840002, ThermoFisher Scientific, Waltham, MA), 1% Penicillin/Streptomycin/L-Glutamine (catalog #10378016, ThermoFisher Scientific, Waltham, MA), and 0.05 mM 2-mercaptoethanol (catalog #21985-023, ThermoFisher Scientific, Waltham, MA) at 37° C., 5% CO2, and 95% humidity. Cells were expanded until reaching 70-95% confluency at which point they were subcultured or harvested for assay use. Cells were seeded in 6-well culture plate at 3.0×10^6 cells per well in 2 mL complete growth medium and incubated with indicated concentrations of Compound 2 at 37° C., 5% CO2, and 95% humidity for 4 h. At the end of the incubation, cells were washed with PBS (Sigma) and RNA was extracted using RNeasy® Plus Kits (Qiagen, Germantown, MD). cDNA was synthesized using the High-Capacity cDNA Reverse Transcription Kit (Applied Biosciences, Beverly Hills, CA), and quantitative PCR was performed on a QuantStudio 3 (Applied Biosciences) using TaqMan Assays (Table 1, Thermo) and TaqMan Fast Advanced Master Mix (Thermo) according to manufacturer's specifications.

[2] = test system: HT-1080 cell line with GCN2 or PERK knockdown; assay: HT-1080 shRNA knockdown assay; assay type: cell-based
Method: Fibrosarcoma cell line HT-1080 (catalog […]) was obtained from the American Type Culture Collect (ATTC, Manassas, VA). Cells were grown in RPMI-1640 medium supplemented with 10% heat-inactivated fetal bovine serum and 1% Penicillin/Streptomycin/L-Glutamine (Invitrogen, Carlsbad, CA) at 37° C., 5% CO2, and 95% humidity and maintained at 50-80% confluency until use. shRNAs-expressing constructs targeting PERK, GCN2 or scrambled control were obtained from MISSION (Sigma, St. Louis, MO) and lentiviruses containing each construct were produced in-house. Cells were plated at 400,000 cells/well in 6-well tissue culture plates (ThermoFisher Scientific, Waltham, MA) with complete growth media and incubated overnight at 37° C., 5% CO2, and 95% humidity to attach. The next day, existing media was removed from each well and replenished with 1 mL/well fresh media containing 5 μg/mL polybrene (VectorBuilder, Chicago, IL). Cells were transduced with 200 μL/well corresponding lentivirus for 24 hours before being processed for western blot and cell proliferation assays.

[3] = test system: LoVo colorectal xenograft; assay: LoVo xenograft efficacy model; assay type: in vivo, mice; details: 5 mg/kg BID, 22 days of dosing
Method: The LoVo xenograft model was performed in compliance with all the laws, regulations and guidelines of the National Institutes of Health (NIH) and with the approval of the Animal Care and Use Committee of Crown Bioscience (Taicang, China), an AAALAC accredited facility. Food and water were provided ad libitum. […] Female Balb/c nude mice (5-9 weeks old) were inoculated subcutaneously just below the right high axilla with ten million cells in Dulbecco's Phosphate Buffered Saline, using a 27-gauge needle and syringe. When tumor burdens reached 100 mm 3 on average on day 6, mice were randomly assigned into groups such that the mean tumor burden for all groups was within 10% of the overall mean tumor burden for the study population. Groups were treated on days 6-27 as follows: vehicle control (dosed orally) (n=9); Compound 2 dosed orally at 5 mg/kg BID (n=9); Compound 2 dosed orally at 1 mg/kg BID. Tumor volume and body weights were measured three time per week. Tumor burden (mg) was estimated from caliper measurements by the formula: tumor burden (mg=mm 3)=(length×width 2)/2.

[4] = test system: HT-1080 fibrosarcoma xenograft; assay: HT-1080 xenograft efficacy model; assay type: in vivo, mice; details: 10 mg/kg BID, 14 days of dosing
Method: The HT-1080 xenograft model was performed in compliance with all the laws, regulations and guidelines of the National Institutes of Health (NIH) and with the approval of the Animal Care and Use Committee of Labcorp (Ann Arbor, MI), an AAALAC accredited facility. Food and water were provided ad libitum. […] Female nude mice (6-7 weeks old) were inoculated subcutaneously just below the right high axilla with two million cells in Dulbecco's Phosphate Buffered Saline, using a 27-gauge needle and syringe. When tumor burdens reached 100 mm 3 on average on day 6, mice were randomly assigned into groups such that the mean tumor burden for all groups was within 10% of the overall mean tumor burden for the study population. […] Tumor volume and body weight were measured three time per week. Tumor burden (mg) was estimated from caliper measurements by the formula: tumor burden (mg=mm 3)=(length×width 2)/2.

Question: For `Cn1cc(-c2cccc(NS(=O)(=O)c3cc(Cl)cc(CO)c3Cl)c2F)c2c(N)ncnc21` [Example 2, N-(3-(4-amino-7-methyl-7H-pyrrolo[2,3-d]pyrimidin-5-yl)-2-fluorophenyl)-2,5-dichloro-3-(hydroxymethyl)benzenesulfonamide], which IC50 (CCRF-CEM leukemia cells) is on record?
Answer: ≤ 100 nM

Question: What about the “maximum stimulation for ATF4 (gene expression)” value ([1]; 4 h, fold change over DMSO) of the same compound?
Answer: ~3 folds

Question: And the “maximum stimulation for CHOP (gene expression)” value ([1]; 4 h, fold change over DMSO)?
Answer: ~10 folds

Question: What about the “maximum stimulation for GADD34 (gene expression)” value ([1]; 4 h, fold change over DMSO) of the same compound?
Answer: ~3 folds

Question: And the “maximum stimulation for GPT2 (gene expression)” value ([1]; 4 h, fold change over DMSO)?
Answer: ~3

Question: And the “maximum stimulation for VEGFA (gene expression)” value ([1]; 4 h, fold change over DMSO)?
Answer: ~2 folds

Question: And the “concentrations at which ATF4 target gene expression reverted to basal levels” value ([1]; FIG. 4, inhibitory phase)?
Answer: ≥ 370 nM

Question: And the “compound-mediated spheroid growth inhibition upon knockdown” value ([2]; FIG. 13C)?
Answer: attenuated upon knockdown of GCN2 but not PERK

Question: What about the “reduction of compound-mediated upregulation of ATF4” value ([2]; upon knockdown of GCN2, FIG. 13B) of the same compound?
Answer: 75%

Question: And the “reduction of compound-mediated upregulation of ATF4” value ([2]; upon knockdown of PERK, FIG. 13B)?
Answer: 50%

Question: And the “mean tumor growth inhibition” value [3]?
Answer: 69%

Question: What about the “mean tumor growth inhibition” value [4] of the same compound?
Answer: 50%
